# Test results taken from patent publication US10215749B2, “Ported parallel plate flow chamber and methods for use thereof” (priority 2013, dated 2019).
# Tested on: Human Aortic Endothelial Cells
# Test: Gene expression differences (Affymetrix PRIMEVIEW microarray) under shear stress conditions with PI-103 treatment in a flow chamber
# Format: cell-based
# Experimental: Cells were cultured on a collagen I-coated growth surface under static conditions (no flow) until confluency was reached. Cells were then either exposed to fluid flow in a flow chamber at 0.2 or 1.0 Pa for 20 hours, or left in static culture for the same amount of time. At 20 hours, RNA was isolated from the cells using an Ambion MIRVANA™ RNA isolation kit (Life Technologies, Foster City Calif., United States of America) and processed for analysis on Affymetrix PRIMEVIEW™ arrays (Affymetrix, Inc., Santa Clara, Calif., United States of America). Three experiments were performed for each condition, providing replicates for microarray analysis.
# Gene expression differences in Human Aortic Endothelial Cells were also tested under different shear stress conditions, using a flow chamber device, in the presence or absence of the PI3K/Akt and mTOR inhibitor PI-103 (3-[4-(4-morpholinyl)pyrido[3′,2′:4,5]furo[3,2-d]pyrimidin-2-yl]-phenol); CAS No. 371935-74-9) at a concentration of 100 nM.
# Cells were grown on a collagen-I coated growth surface and treated with 100 nM PI-103 in the presence of flow. For the 4 hour time point, cells were exposed to fluid flow for 16 hours and treated with PI-103 for the last 4 hours in the presence of flow. Cells were also treated with PI-103 for the entire duration of flow (20 hours). Data was generated using RNA extracted as described in Example 1, and analyzed on Affymetrix PRIMEVIEW™ arrays (Affymetrix, Inc.,). Three experiments were performed for each condition, providing replicates for microarray analysis.
smiles,measurement,setting,value
"Oc1cccc(-c2nc(N3CCOCC3)c3oc4ncccc4c3n2)c1 [PI-103, 3-[4-(4-morpholinyl)pyrido[3′,2′:4,5]furo[3,2-d]pyrimidin-2-yl]-phenol]",No. of Genes Changed,"0.2 Pa shear stress, 100 nM PI-103, 4 hr drug exposure, vs non-treated cells under same flow",830
same,No. of Genes Changed,"0.2 Pa shear stress, 100 nM PI-103, 20 hr drug exposure, vs non-treated cells under same flow",113
same,No. of Genes Changed,"1.0 Pa shear stress, 100 nM PI-103, 4 hr drug exposure, vs non-treated cells under same flow",1563
same,No. of Genes Changed,"1.0 Pa shear stress, 100 nM PI-103, 20 hr drug exposure, vs non-treated cells under same flow",119
same,No. of Genes Changed,"No Shear (static), 100 nM PI-103, 4 hr drug exposure, vs non-treated cells under same condition",130
same,No. of Genes Changed,"No Shear (static), 100 nM PI-103, 20 hr drug exposure, vs non-treated cells under same condition",159
